The source made the active and inactive calls.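 Rule for the calls: active = compounds giving half or more protection of infected cells from virus-caused growth loss, again on retest; inactive = the rest.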
Test system: CEM cells HIV-1 protection, formazan growth assay
Assay: NCI AIDS Antiviral Assay
Settings: for IC50: measured here: growth of uninfected CEM cells
Outline: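 Five concentrations of each compound were applied to infected and uninfected human CEM cells. Protection from HIV-1 was judged from growth measured with a soluble formazan assay.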

| Compound | EC50 | IC50 | outcome |
| --- | --- | --- | --- |
| O=C(Nc1ccc(Oc2ccc(Cl)cc2)c(Cl)c1)c1cc(I)cc(I)c1O | > 200 µM | 11.5 µM |  |
| COC(=O)C1(Cc2ccc3c(c2)CCC3)Cc2cc3c(cc2C1)CCC3 | > 200 µM | > 200 µM |  |
| NC(=O)c1ccccc1NC(=O)C(=O)C(c1cnc2ccc([N+](=O)[O-])cc2n1)[N+](=O)[O-] (centres undefined) | > 61.7 µM | > 61.7 µM |  |
| Cn1cc(NC(=O)Nc2cc(C(=O)Nc3cc(C(=O)Nc4cc(S(=O)(=O)O)c5cc(S(=O)(=O)O)cc(S(=O)(=O)O)c5c4)n(C)c3)n(C)c2)cc1C(=O)Nc1cc(C(=O)Nc2cc(S(=O)(=O)O)c3cc(S(=O)(=O)O)cc(S(=O)(=O)O)c3c2)n(C)c1 | 4.68 µM | 224 µM |  |
| Cc1cn(C2CCC3(CO)CC23)c(=O)[nH]c1=O (centres undefined) | > 50.1 µM | > 50.1 µM |  |
| N#C/C(=C\c1ccc(-c2ccccc2)cc1)c1ccc([N+](=O)[O-])cc1 | > 200 µM | > 200 µM |  |
| Cc1cccc(/C=N/NC(=S)Nc2ccc(Cl)cc2)n1 | > 200 µM | 3.16 µM |  |
| CCCCCCOC(=O)c1[nH]c(=O)[nH]c(=O)c1N | > 200 µM | > 200 µM |  |
| Cn1c(SCc2ccc([N+](=O)[O-])cc2)nnc1C12CC3CC(CC(C3)C1)C2 | > 200 µM | 110 µM |  |
| COc1ccc(S(=O)(=O)c2nnc(S(=O)(=O)Cc3ccccc3)s2)cc1 | > 200 µM | 3.63 µM |  |
| CC[C@@]1(O)C(=O)OCc2c1cc1n(c2=O)Cc2cc3cc(OC)ccc3nc2-1 | > 0.1 µM | 0.0186 µM |  |
| CCC1(CC)COP(=S)(SCCOC(=O)c2ccccc2)OC1 | > 200 µM | 46.8 µM |  |
| CCOC(=O)C1=C(NC)OC/C1=N\NC(=O)c1ccccc1O | > 93.3 µM | 14.1 µM |  |
| CN1CCN(C(=O)CCN2c3ccccc3Sc3ccccc32)CC1 | > 513 µM | 117 µM |  |
| CC(=O)O[C@H]1CC[C@@]2(C)C(=CC[C@H]3[C@@H]4CC[C@H]([C@H](C)C(=O)OCC5OC(n6cc(C)c(=O)[nH]c6=O)CC5N=[N+]=[N-])[C@@]4(C)CC[C@@H]32)C1 (some centres undefined) | > 200 µM | 4.79 µM |  |
| O=c1[nH]c(=O)n2n1C1C=CC2CC1 | > 200 µM | > 200 µM |  |
| CCc1n[nH]c(=O)n1-c1ccncc1 | > 200 µM | > 200 µM |  |
| O=[N+]([O-])c1cc(Cl)ccc1S(=O)(=O)c1cc(Cl)cc2c1NCCC2 | > 200 µM | 32.4 µM |  |
| CCOC(=O)CN(c1scc(-c2ccccc2)c1C(=O)OCC)S(=O)(=O)c1ccc(C)cc1 | > 200 µM | 9.33 µM |  |
| CN(Cc1cnc2nc(N)nc(N)c2n1)c1ccc(C(=O)NC(CCC(=O)NC(P(=O)(O)O)P(=O)(O)O)C(=O)O)cc1 (centres undefined) | > 200 µM | 11.2 µM |  |
| O=S(/C=C/C=C/S(=O)(=O)c1ccccc1)c1ccccc1 (centres undefined) | > 200 µM | 0.977 µM |  |
| CCOC(=O)c1csc(-c2nc(CCNC(=O)c3ccccc3)sc2Cl)n1 | > 85.1 µM | 44.7 µM |  |

| Compound | EC50 | IC50 | outcome |
| --- | --- | --- | --- |
| O=c1c(-c2ccccc2)nc2ccccc2n1CC1CCCN2CCCC[C@H]12 (some centres undefined) | > 200 µM | 39.8 µM |  |
| O=C1OC(=O)N2CSCC12 (centres undefined) | > 1580 µM | > 1580 µM |  |
| COc1cc(CC(=O)O)c(C(=O)c2cccc([N+](=O)[O-])c2)cc1OC | > 200 µM | 37.2 µM |  |
| CC(=NCCN(CCN=C(C)c1c(O)cc(C)oc1=O)CCN=C(C)c1c(O)cc(C)oc1=O)c1c(O)cc(C)oc1=O | > 200 µM | > 200 µM |  |
| CC1CCC2CC1NC(=O)CCOCCC(=O)NC2(C)C (centres undefined) | > 45.7 µM | > 45.7 µM |  |
| Oc1ccc(C(=C(Br)c2ccccc2)c2ccc(O)cc2)cc1 | > 200 µM | 3.98 µM |  |
| N#Cc1c(N)oc2cc3c(C#N)c(N)oc3cc12 |  |  | inactive |
| CS/C(c1ccccc1)=[N+](\[O-])Cc1ccccc1 | > 646 µM | 457 µM |  |
| COC(=O)c1c2c(cc3c1CC1(Cc4cc5c(c(C=O)c4C1)CCCC5)C3)CCCC2 (centres undefined) | > 200 µM | 24.5 µM |  |
| CN(C)c1ccc(/C=C(\C#N)C(=O)c2ccccc2)cc1 | > 29.5 µM | 6.17 µM |  |
| COc1ccc2c(c1)CC1Cc3ccccc3CCN1C2 (centres undefined) | > 200 µM | 39.8 µM |  |
| O=c1[nH][nH]c(=O)c2nc(Nc3ccc(Cl)cc3)ncc12 | > 34.7 µM | > 34.7 µM |  |
| CC1C=C(Sc2ccccc2)C(=O)O1 (centres undefined) | > 468 µM | 25.1 µM |  |
| CN(C)c1ccc(/C=C/C(=O)c2ccccc2)cc1Br | > 15.8 µM | > 15.8 µM |  |
| O=C1[O][Hg][c]2cccc3cccc1c23 |  |  | inactive |
| CN1C(=O)OC(c2ccc(Cl)cc2)C1=O (centres undefined) | > 200 µM | > 200 µM |  |
| COC1(OC)CCN(Cc2ccccc2)C1=O | > 20 µM | 2.69 µM |  |
| O=[N+]([O-])/C(C(Cl)=C(Cl)Cl)=C(\SCc1ccccc1)N1CCCCC1 | > 200 µM | > 200 µM |  |
| O=C(Cn1cc(-c2ccccc2)nn1)NC1CCCC1 | > 200 µM | > 200 µM |  |
| CCOC(=O)Cc1ccc2c(c1)sc1nc(-c3ccc(OC)cc3)cn12 | > 200 µM | 60.3 µM |  |
| O=CC1(c2ccccc2)NC(=O)NC1=O (centres undefined) | > 200 µM | > 200 µM |  |
| CCOC(=O)C(N=Nc1ccc(S(N)(=O)=O)cc1)C(C)=O (centres undefined) | > 794 µM | 389 µM |  |

| Compound | EC50 | IC50 | outcome |
| --- | --- | --- | --- |
| Cc1cc(C)n2nc3c4ccsc4ncc3c2n1 | > 45.7 µM | > 45.7 µM |  |
| Cc1ccc(S(=O)(=O)OCCn2cnc3nc(NC(=O)c4ccccc4)[nH]c(=O)c32)cc1 | > 57.5 µM | > 57.5 µM |  |
| CN1CCC(OC(c2ccccc2)c2ccc(Cl)cc2)C1 (centres undefined) |  |  | inactive |
| CCOC(=O)C1=CC(C)(C(=O)OCC)Nc2c(nc(OC)n(C)c2=O)N1 (centres undefined) | > 200 µM | > 200 µM |  |
| Cc1cc(C)c2c(=N)c3ccccc3n(CCCCCCCCn3c4ccccc4c(=N)c4c(C)cc(C)nc43)c2n1 | > 2 µM | 0.251 µM |  |
| CC(C)/C(Cl)=N/OC(=O)Nc1ccc(F)c(Cl)c1 | > 20 µM | 3.31 µM |  |
| CN(C)c1cc[n+](-c2c([O-])c3ccccc3n(-c3ccccc3)c2=O)cc1 | > 200 µM | 195 µM |  |
| COc1ccc(C2(C)OC(=O)c3ccccc32)c2ccccc12 (centres undefined) |  |  | inactive |
| CCOC(=O)C(c1ccccc1)[N+](C)(C)C (centres undefined) | > 200 µM | > 200 µM |  |
| COc1ccccc1C(=O)c1c(N2CCCCC2)c(=O)c1=O | 182 µM | > 200 µM |  |
| NC(=O)c1ccc[c]([Sb](=[O])([OH])[OH])c1 | 10.5 µM | 398 µM |  |
| CCc1cc(CCC(=O)Nc2c(C)cccc2C)nc(NC#N)n1 |  |  | inactive |
| Cc1cc(=O)n2nc(SCc3ccccc3)sc2n1 | > 200 µM | 81.3 µM |  |
| CCN(CC)c1ccc2c(c1)Oc1cc(N(CC)CC)ccc1C21c2ccccc2C(=O)N1c1ccccc1 | > 200 µM | > 200 µM |  |
| c1ccc(N/N=C2\NN=C(c3ccccc3)CS2)cc1 | > 66.1 µM | 35.5 µM |  |
| CCCCCCCCCCCCCCCCCCSCC(C)(COP(=O)(O)OP(=O)(O)OCC1OC(n2cc(C)c(=O)[nH]c2=O)CC1N=[N+]=[N-])OC(=O)CCCCCCCCCCCCCCC (centres undefined) | 3.24 µM | 60.3 µM |  |
| COc1ccc([C@H]2Oc3cc(OCc4ccccc4)c(O)cc3[C@@H]2C)c(OC)c1 | > 200 µM | 38.9 µM |  |
| O=c1n(-c2ccccc2)c2nc3ccccc3nc2n1-c1ccc(Cl)c(Cl)c1 | > 61.7 µM | 30.2 µM |  |
| O=C1c2cccc3cc([N+](=O)[O-])cc(c23)C(=O)N1c1ccc(OCCN2CCCC2)cc1 | > 200 µM | 5.62 µM |  |
| CC(CNC(=O)CCC(N)C(=O)O)C(=O)O (centres undefined) |  |  | inactive |
| CCOC(=O)Cn1c(=O)cc(C=O)c2ccccc21 | > 200 µM | 15.5 µM |  |
| O=c1[nH]c(O)c(/C=N\C(=S)Nc2cc(Cl)ccc2Cl)c(=O)[nH]1 | > 200 µM | 162 µM |  |

| Compound | EC50 | IC50 | outcome |
| --- | --- | --- | --- |
| C=C(C)[C@H]1CC(=O)[C@@]2(C)C[C@H]3O[C@]3(C)CC/C=C(\C)CC[C@H]12 | > 200 µM | 55 µM |  |
| O=c1ssc(=Nc2ccc(Cl)cc2)n1-c1ccc(Cl)cc1 | > 200 µM | 8.91 µM |  |
| CC1=Nc2ccccc2NC(c2ccoc2)C1 (centres undefined) | > 22.9 µM | > 22.9 µM |  |
| CC(=O)NS(=O)(=O)c1ccc(N=Cc2cc(Cl)cc(Cl)c2O)cc1 | > 200 µM | 19.5 µM |  |
| Cn1c(=O)c2c(no[n+]2[O-])n(C)c1=O | > 200 µM | 13.2 µM |  |
| CCOC1CC(C)N(C(=O)c2ccccc2)O1 (centres undefined) | > 200 µM | > 200 µM |  |
| O=C(/C=C/c1ccc(OCC(=O)N2CCN(c3ccccc3)CC2)cc1)c1ccc(Cl)cc1 | > 29.5 µM | > 29.5 µM |  |
| CCOC(=O)CNC(=O)CNC(=O)CNC(=O)CNNc1c(OCc2ccccc2)c(=O)c1=O | > 200 µM | > 200 µM |  |
| O=C1NN(c2ccccc2)[C@@H]2CCCC[C@H]12 | > 437 µM | > 437 µM |  |
| COCCOC(=O)NCn1cc(-c2ccccc2)nn1 | > 200 µM | > 200 µM |  |
| COCOc1ccc(C2(O)Oc3cc(OCOC)ccc3C2C)c(O)c1 (centres undefined) | > 200 µM | 24 µM |  |
| CC(C)=NNC1=NC(C)(C)P(=O)(N2CCCC2C(=O)O)S1 (centres undefined) | > 135 µM | 132 µM |  |
| c1ccc(SCCC(Sc2ccccc2)Sc2ccccc2)cc1 | > 200 µM | 93.3 µM |  |
| N#CC1(C#N)NC(c2ccsc2)C(C#N)(C#N)NC1c1ccsc1 (centres undefined) | > 200 µM | 115 µM |  |
| COC(=O)c1ccccc1CC1Cc2cc3c(cc2C1)CCC3 | > 200 µM | 38 µM |  |
| COC(=O)C1=C(c2ccccc2)ON2C(C)(C)COC12C (centres undefined) | > 200 µM | > 200 µM |  |
| Cc1ccc(/C([O-])=C(\C(=S)Nc2cccc(Cl)c2)[n+]2ccccc2)cc1 | > 200 µM | 25.1 µM |  |
| CC1=CC(C)(c2c[nH]c3ccccc23)CC(C)(C)c2c1[nH]c1ccccc21 (centres undefined) |  |  | inactive |
| O=[N+]([O-])c1ccc(OP(=O)(O)OCC2OC(CP(=O)(O)O)C(O)C2O)cc1 (centres undefined) | > 200 µM | > 200 µM |  |
| C=C1CC2(OC1=O)c1ccccc1CCc1ccccc12 | > 36.3 µM | 6.17 µM |  |
| COC1=CC(=O)C(OC)=C(C2C(=O)N(C)c3ccccc32)C1=O (centres undefined) | > 200 µM | 61.7 µM |  |
| COc1nc(=O)cc(N)n1C1OC(CO)C(O)C1O (centres undefined) | > 912 µM | > 912 µM |  |
